Test results reported in patent publication US20230265151A1, “GIP/GLP1 CO-AGONIST COMPOUNDS” (priority 2020, published 2023).
Like-named read-outs stand apart in the source and are kept apart here. *1 amine or outer side, *2 acyl side, *3 side chain or, on linkers, in order; H or OH if unused. Where a SMILES comes first, the peptide text is derived from it. Side-chain parts run from the residue outwards. [ ]: non-standard residue; d: D form. The star is where a group is joined. αMePhe(2-F) = C[C@](N)(Cc1ccccc1F)C(=O)O; γGlu = O=C(O)[C@H](CCC(=O)[*:2])N[*:1]; C14 diacid = O=C(O)CCCCCCCCCCCCC(=O)*; αMeY = C[C@](N)(Cc1ccc(O)cc1)C(=O)O; 4Pal = N[C@@H](Cc1ccncc1)C(=O)O; αMeL = CC(C)C[C@](C)(N)C(=O)O; αMeS = C[C@](N)(CO)C(=O)O; Orn = NCCC[C@H](N)C(=O)O; AEEA = NCCOCCOCC(=O)O; Aib = CC(C)(N)C(=O)O

Assays:
Assay type in all cases: cell-based
hGCGR = molecular target: T1, hGCGR (Homo sapiens, UniProt P47871); test: Functional cAMP formation (HTRF) in HEK-293 clonal cells expressing hGCGR, 0.1% bovine casein, without or with 1.0% human serum albumin; details: hGCGR EC50, nM (SEM, n), geometric mean
T1 construct: expressed in transfected cells
Method in brief: (§1)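 Cells were stimulated with peptide for 30 min at 37° C, then lysed in buffer carrying cAMP-d2 and anti-cAMP Eu3+-cryptate for a competitive HTRF read after at least 60 min at room temperature. The 665/620 nm ratio was converted to nM cAMP against a standard curve.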

hGLP-1R = hGLP-1R (Homo sapiens, UniProt P43220); test: Functional cAMP formation (HTRF) in HEK-293 clonal cells expressing hGLP-1R, 0.1% bovine casein, without or with 1.0% human serum albumin; design: expressed in transfected cells
Method in brief: as §1

hGIPR = molecular target: T2, hGIPR (Homo sapiens, UniProt P48546); test: Functional cAMP formation (HTRF) in HEK-293 clonal cells expressing hGIPR, 0.1% bovine casein, without or with 1.0% human serum albumin
T2 construct: expressed in transfected cells
T2 sequence (P48546 22-466): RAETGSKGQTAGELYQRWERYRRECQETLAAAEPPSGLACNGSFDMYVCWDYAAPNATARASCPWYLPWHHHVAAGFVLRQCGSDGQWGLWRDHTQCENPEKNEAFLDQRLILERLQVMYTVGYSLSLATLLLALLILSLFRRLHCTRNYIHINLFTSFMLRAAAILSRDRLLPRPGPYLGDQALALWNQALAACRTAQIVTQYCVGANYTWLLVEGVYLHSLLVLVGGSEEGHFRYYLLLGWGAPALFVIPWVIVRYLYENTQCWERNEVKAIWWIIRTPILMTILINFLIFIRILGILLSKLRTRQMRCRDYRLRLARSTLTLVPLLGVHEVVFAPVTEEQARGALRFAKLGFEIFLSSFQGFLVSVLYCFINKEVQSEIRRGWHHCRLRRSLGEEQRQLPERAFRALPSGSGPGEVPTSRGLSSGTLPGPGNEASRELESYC
Method in brief: as §1

T1 sequence (P47871 26-477): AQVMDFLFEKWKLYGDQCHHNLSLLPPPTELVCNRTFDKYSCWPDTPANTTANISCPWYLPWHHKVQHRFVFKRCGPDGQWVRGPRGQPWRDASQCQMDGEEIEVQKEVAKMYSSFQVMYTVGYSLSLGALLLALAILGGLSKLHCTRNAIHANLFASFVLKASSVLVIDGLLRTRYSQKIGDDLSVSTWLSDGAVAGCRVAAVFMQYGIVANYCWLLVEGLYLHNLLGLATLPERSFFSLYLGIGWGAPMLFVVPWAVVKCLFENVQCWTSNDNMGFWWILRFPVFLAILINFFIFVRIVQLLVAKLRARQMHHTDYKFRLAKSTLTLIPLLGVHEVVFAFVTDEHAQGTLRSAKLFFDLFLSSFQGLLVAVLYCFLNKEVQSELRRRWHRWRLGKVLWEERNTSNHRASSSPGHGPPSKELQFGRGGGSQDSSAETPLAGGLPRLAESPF
Sequence of hGLP-1R (P43220 24-463): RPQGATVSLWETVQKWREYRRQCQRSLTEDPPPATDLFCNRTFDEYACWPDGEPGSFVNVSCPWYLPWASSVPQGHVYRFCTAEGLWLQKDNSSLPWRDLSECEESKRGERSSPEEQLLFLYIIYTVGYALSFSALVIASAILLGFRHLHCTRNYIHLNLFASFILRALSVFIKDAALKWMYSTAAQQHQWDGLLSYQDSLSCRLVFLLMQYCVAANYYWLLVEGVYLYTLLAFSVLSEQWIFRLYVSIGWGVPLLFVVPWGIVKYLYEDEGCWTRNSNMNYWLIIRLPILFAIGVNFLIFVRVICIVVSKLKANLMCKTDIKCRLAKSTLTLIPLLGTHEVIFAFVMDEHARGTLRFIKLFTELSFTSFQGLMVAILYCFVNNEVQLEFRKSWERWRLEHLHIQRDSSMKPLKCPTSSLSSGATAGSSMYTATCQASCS

CC[C@H](C)[C@H](NC(=O)[C@H](CCCN)NC(=O)[C@H](CC(=O)O)NC(=O)[C@H](CC(C)C)NC(=O)[C@](C)(CC(C)C)NC(=O)[C@@H](NC(=O)[C@](C)(CO)NC(=O)[C@H](Cc1ccncc1)NC(=O)[C@H](CC(=O)O)NC(=O)[C@H](CO)NC(=O)[C@@H](NC(=O)[C@](C)(Cc1ccccc1F)NC(=O)[C@@H](NC(=O)CNC(=O)[C@H](CCC(=O)O)NC(=O)C(C)(C)NC(=O)[C@@H](N)Cc1ccc(O)cc1)[C@@H](C)O)[C@@H](C)O)[C@@H](C)CC)C(=O)N[C@@H](C)C(=O)N[C@@H](CCC(N)=O)C(=O)NC(C)(C)C(=O)N[C@@H](CCCCNC(=O)COCCOCCNC(=O)COCCOCCNC(=O)CC[C@H](NC(=O)CCCCCCCCCCCCC(=O)O)C(=O)O)C(=O)N[C@@H](Cc1ccccc1)C(=O)N[C@H](C(=O)N[C@@H](CCCCNC(=O)COCCOCCNC(=O)COCCOCCNC(=O)CC[C@H](NC(=O)CCCCCCCCCCCCC(=O)O)C(=O)O)C(=O)N[C@@](C)(Cc1ccc(O)cc1)C(=O)N[C@@H](CC(C)C)C(=O)N[C@H](C(=O)N[C@@H](CCC(=O)O)C(=O)NCC(=O)NCC(=O)N1CCC[C@H]1C(=O)N[C@@H](CO)C(=O)N[C@@H](CO)C(=O)NCC(=O)N[C@@H](C)C(=O)N1CCC[C@H]1C(=O)N1CCC[C@H]1C(=O)N1CCC[C@H]1C(=O)N[C@@H](CO)C(N)=O)[C@@H](C)CC)[C@@H](C)CC [Example 215] (H-Y[Aib]EGT[αMePhe(2-F)]TSD[4Pal][αMeS]I[αMeL]LD[Orn]IAQ[Aib]K([AEEA-AEEA-γGlu-C14 diacid])FIK([AEEA-AEEA-γGlu-C14 diacid])[αMeY]LIEGGPSSGAPPPS-NH2)
EC50 (hGCGR; 0.1% bovine casein and 1.0% human serum albumin, 37° C.): > 9950 nM | EC50 (hGCGR; cAMP, incubated at 37° C., 0.1% bovine casein (no human serum albumin)): > 9950 nM | Emax (hGLP-1R; HEK293, read-out: hGLP-1R Emax, % ± SEM, percent of maximal response to GLP-1(7-36)NH2, 37° C., 0.1% bovine casein, arithmetic mean): 89.8% | EC50 (hGLP-1R; hGLP-1R EC50, nM (SEM, n), cAMP, incubated at 37° C., 0.1% bovine casein (no human serum albumin), geometric mean): 0.44 nM | Emax (hGIPR; HEK293, read-out: hGIPR Emax, % ± SEM, 0.1% bovine casein and 1.0% human serum albumin, 37° C., percent of maximal response to GIP(1-42)NH2): 91.3% | Emax (hGIPR; HEK293, read-out: hGIPR Emax, % ± SEM, percent of maximal response to GIP(1-42)NH2, 37° C., 0.1% bovine casein, arithmetic mean): 85% | EC50 (hGIPR; hGIPR EC50, nM (SEM, n), cAMP, incubated at 37° C., 0.1% bovine casein (no human serum albumin), geometric mean): 0.0437 nM
